Test system: epidermis / stratum corneum (skin cell renewal)
Test: Skin cell renewal (dansyl chloride) method
Format: in vivo, human
Conditions: standard positive control; topical, pH 3.0 dissolved in water; vs untreated site
From the text: Several test methods were used to evaluate results of the compositions according to the present disclosure. One test method used was the skin cell renewal (dansyl chloride) method. The rate of cell renewal, or the transit time for an epidermal basal cell, to mature and slough off the skin surface can be assessed via a dansyl chloride staining method. As we age the rate of renewal decreases from about 15-20 days for a person to about 30 days for a person. […]
The full thickness epidermis was stained with a fluorescent dye as follows: 5% ultra pure dansyl chloride was milled into petrolatum and applied as a very thin film to standard adhesive bandages that were 2 cm by 3 cm. […] Staining was confirmed by viewing the sites with a long wave (ultra violet) UV light source to detect dansyl chloride fluorescence. […]
To assess product effects on cell renewal rates, test products were applied topically twice a day in a randomized fashion to the test sites with an untreated site serving as a control. […] Removal of the stain, reflecting loss of stratum corneum was monitored daily with the UV light source until complete removal, usually occurring in 3-4 weeks, of all stain was noted. The percentage increase in cell renewal was calculated as follows: […]

SMILES: CC(O)C(=O)O (stereo not shown) [5% lactic acid, lactic acid]
- increases in renewal rates (percentage increase in cell renewal): 25-30%
